Where two headings read alike, the source gives them in different places.
Legend:
DLD1 BRCA2 (−/−) cells = test: 7-day cell viability assay (CellTiter-Glo), DLD1 BRCA2 (−/−); format: cell-based, human; conditions: 7-day CellTiter-Glo, n=2, read-out: Viability IC50 (uM) DLD1 BRCA2 null
Method: (§1) Cell lines DLD1 WT and DLD1 BRCA2 (−/−) (Horizon Discovery Cat No. HD PAR-008 and HD-105-007) were plated in 384-well culture plates at seeding densities of 100cells/50 ul/well and 200 cells/50 uL/well respectively. The seeding densities are pre-determined from the growth curve kinetics performed to ensure log linear phase of cell growth for these 2 cell lines. These assay plates are then placed in the incubator at 37° C., 5% CO2, relative humidity >90% for a few hours before addition of test compounds. Compounds are dispensed using the Tecan HPD300 or Echo based on the plate map in the appropriate wells of the 384-well plates. The cells are treated with nine-point dose response with 3-fold serial dilutions of test compounds starting at 10 uM top concentration. After addition of the test compounds, the plates are incubated at 37° C., 5% CO2, relative humidity >90% for 7 days. CellTiter-Glo (Promega Cat. No. G7573), ATP detection reagent is prepared according to manufacturer's specifications. Cell assay plates are removed from incubator and bring to room temperature (RT) by letting them sit at bench top for at least 15 min. Using the MultiDrop liquid handler or a multichannel pipette, 35 μL/well of CTG is added and the plates are then placed shakes for 5 seconds, RT.

DLD1 WT cells = test: 7-day cell viability assay (CellTiter-Glo), DLD1 parental (WT); format: cell-based, human; conditions: n=2
Method: as §1

[1] = target: biotinylated Avi-POLθ[2-894] (Homo sapiens (Human), UniProt O75417); test: POLθ ATPase assay (ADP-Glo); conditions: n=2; read-out: Biochemical ATPase ADPGlo IC50
[2] = Homo sapiens, DLD-1, 168 h, 7-day CellTiter-Glo

biotinylated Avi-POLθ[2-894], sequence (O75417 2-894): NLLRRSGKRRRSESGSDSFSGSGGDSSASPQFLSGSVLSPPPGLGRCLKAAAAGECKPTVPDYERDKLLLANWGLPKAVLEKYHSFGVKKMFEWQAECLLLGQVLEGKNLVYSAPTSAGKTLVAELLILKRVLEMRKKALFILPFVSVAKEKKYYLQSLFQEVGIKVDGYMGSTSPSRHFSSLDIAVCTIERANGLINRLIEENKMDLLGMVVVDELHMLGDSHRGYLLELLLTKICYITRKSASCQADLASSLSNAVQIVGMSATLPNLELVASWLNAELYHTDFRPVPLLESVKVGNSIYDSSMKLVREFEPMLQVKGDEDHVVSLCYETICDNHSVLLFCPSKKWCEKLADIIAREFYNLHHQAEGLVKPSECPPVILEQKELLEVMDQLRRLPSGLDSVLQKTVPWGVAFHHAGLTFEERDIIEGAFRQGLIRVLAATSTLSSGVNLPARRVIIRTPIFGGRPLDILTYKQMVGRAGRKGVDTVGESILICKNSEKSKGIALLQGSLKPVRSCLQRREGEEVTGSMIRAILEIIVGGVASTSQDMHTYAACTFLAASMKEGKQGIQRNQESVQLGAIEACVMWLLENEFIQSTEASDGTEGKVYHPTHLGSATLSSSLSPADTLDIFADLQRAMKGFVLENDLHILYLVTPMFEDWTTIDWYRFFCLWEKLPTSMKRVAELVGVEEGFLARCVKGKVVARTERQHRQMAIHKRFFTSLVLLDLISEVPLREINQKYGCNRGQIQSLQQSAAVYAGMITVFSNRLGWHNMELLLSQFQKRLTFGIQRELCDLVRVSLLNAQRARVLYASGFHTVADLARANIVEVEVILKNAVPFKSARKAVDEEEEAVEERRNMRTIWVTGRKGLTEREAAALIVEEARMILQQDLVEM

Row | Compound | IC50 (DLD1 BRCA2 (−/−) cells; Homo sapiens, DLD-1, 168 h) [µM] | IC50 (DLD1 WT cells; [2]) [µM] | also measured
1 | COc1cnc(Cl)cc1-c1cc(C)ncc1C(=O)Nc1nc2c(s1)CN(C(=O)c1ccc(OC(F)F)cc1)C2 | 0.001 to 0.1 | ≥ 10 | –
2 | COc1cnc(Cl)cc1-c1cc(C)ncc1C(=O)Nc1nc2c(s1)CN(C(=O)c1nc(C)cnc1C)C2 | 0.1 to 0.25 | ≥ 10 | –
3 | COc1cnc(Cl)cc1-c1cc(C)ncc1C(=O)Nc1nc2c(s1)CN(C(=O)c1cc(C)nc3ccnn13)C2 | 0.001 to 0.1 | ≥ 10 | –
4 | COc1cnc(Cl)cc1-c1cc(C)ncc1C(=O)Nc1nc2c(s1)CN(C(=O)c1ccc(C)c(Cl)n1)C2 | 0.001 to 0.1 | ≥ 10 | –
5 | COc1cnc(Cl)cc1-c1cc(C)ncc1C(=O)Nc1nc2c(s1)CN(C(=O)c1nc(C(F)F)ccc1F)C2 | 0.001 to 0.1 | ≥ 10 | –
6 | COc1cnc(Cl)cc1-c1cc(C)ncc1C(=O)Nc1nc2c(s1)CN(C(=O)c1ncc(C(F)F)cc1C)C2 | 0.001 to 0.1 | ≥ 10 | –
7 | COc1cnc(Cl)cc1-c1cc(C)ncc1C(=O)Nc1nc2c(s1)CN(C(=O)c1cc(Cl)cnc1C)C2 | 0.001 to 0.1 | ≥ 10 | –
8 | COc1cnc(Cl)cc1-c1cc(C)ncc1C(=O)Nc1nc2c(s1)CN(C(=O)c1ccc(C(F)F)c(C)n1)C2 | 0.001 to 0.1 | ≥ 10 | –
9 | COc1cnc(Cl)cc1-c1cc(C)ncc1C(=O)Nc1nc2c(s1)CN(C(=O)c1nc(C(F)F)ccc1C)C2 | 0.001 to 0.1 | ≥ 10 | –
10 | COc1cnc(Cl)cc1-c1cc(C)ncc1C(=O)Nc1nc2c(s1)CN(C(=O)c1ncc(OC(F)F)cc1Cl)C2 | 0.1 to 0.25 | ≥ 10 | –
11 | COc1cnc(Cl)cc1-c1cc(C)ncc1C(=O)Nc1nc2c(s1)CN(C(=O)c1ccn3nccc3n1)C2 | 0.001 to 0.1 | ≥ 10 | –
12 | COc1cnc(Cl)cc1-c1cc(C)ncc1C(=O)Nc1nc2c(s1)CN(C(=O)c1ccc(C(F)F)c(Cl)n1)C2 | 0.001 to 0.1 | ≥ 10 | –
13 | COc1cnc(Cl)cc1-c1cc(C)ncc1C(=O)Nc1nc2c(s1)CN(C(=O)c1ccc(C(F)F)c(OC)n1)C2 | 0.001 to 0.1 | 5 to 10 | –
14 | COc1cnc(Cl)cc1-c1cc(C)ncc1C(=O)Nc1nc2c(s1)CN(C(=O)c1cnc(OC(F)F)cc1Cl)C2 | 0.001 to 0.1 | ≥ 10 | –
15 | COc1cnc(Cl)cc1-c1cc(C)ncc1C(=O)Nc1nc2c(s1)CN(C(=O)c1cnc(OC(F)F)cc1C)C2 | 0.001 to 0.1 | ≥ 10 | –
16 | COc1cnc(Cl)cc1-c1cc(C)ncc1C(=O)Nc1nc2c(s1)CN(C(=O)c1ncc(C(F)F)cc1F)C2 | 0.001 to 0.1 | ≥ 10 | –
17 | COc1cnc(Cl)cc1-c1cc(C)ncc1C(=O)Nc1nc2c(s1)CN(C(=O)c1ccc(C(C)(F)F)cn1)C2 | 0.001 to 0.1 | ≥ 10 | –
18 | COc1cnc(Cl)cc1-c1cc(C)ncc1C(=O)Nc1nc2c(s1)CN(C(=O)c1ncc(OC(F)F)cc1C)C2 | 0.001 to 0.1 | ≥ 10 | –
19 | COc1cnc(Cl)cc1-c1cc(C)ncc1C(=O)Nc1nc2c(s1)CN(C(=O)c1ccc(C#N)c(C)n1)C2 | 0.001 to 0.1 | ≥ 10 | –
20 | COc1ccc(C(F)F)c(C(=O)N2Cc3nc(NC(=O)c4cnc(C)cc4-c4cc(Cl)ncc4OC)sc3C2)n1 | 0.001 to 0.1 | ≥ 10 | –
21 | COc1cnc(Cl)cc1-c1cc(C)ncc1C(=O)Nc1nc2c(s1)CN(C(=O)c1cc(Cl)c(C(F)F)cn1)C2 | 0.001 to 0.1 | 5 to 10 | –
22 | COc1cnc(Cl)cc1-c1cc(C)ncc1C(=O)Nc1nc2c(s1)CN(C(=O)c1ncc(Cl)nc1C)C2 | 0.5 to 2 | ≥ 10 | –
23 | COc1cnc(Cl)cc1-c1cc(C)ncc1C(=O)Nc1nc2c(s1)CN(Cc1cccc(C(F)F)n1)C2 | 0.001 to 0.1 | ≥ 10 | –
24 | COc1cnc(Cl)cc1-c1cc(C)ncc1C(=O)Nc1nc2c(s1)CN(C(=O)c1nc(C)c(C(F)F)nc1C)C2 | 0.001 to 0.1 | ≥ 10 | –

Row | Compound | IC50 (DLD1 BRCA2 (−/−) cells; Homo sapiens, DLD-1, 168 h) [µM] | IC50 (DLD1 WT cells; [2]) [µM] | also measured
25 | COc1cnc(Cl)cc1-c1cc(C)ncc1C(=O)Nc1nc2c(s1)CN(C(=O)c1nc(OC)c(Cl)nc1C)C2 | 0.001 to 0.1 | ≥ 10 | –
26 | COc1cnc(Cl)cc1-c1cc(C)ncc1C(=O)Nc1nc2c(s1)CN(C(=O)c1nc(OC)c(C(F)F)cc1C)C2 | 0.001 to 0.1 | ≥ 10 | –
27 | COc1cnc(Cl)cc1-c1cc(C)ncc1C(=O)Nc1nc2c(s1)CN(C(=O)c1nc(OC)c(Cl)cc1C)C2 | 0.001 to 0.1 | 5 to 10 | –
28 | COc1cnc(Cl)cc1-c1cc(C)ncc1C(=O)Nc1nc2c(s1)CN(C(=O)c1nc(C)c(C(F)F)cc1Cl)C2 | 0.001 to 0.1 | ≥ 10 | –
29 | COc1cnc(C(F)F)cc1-c1cc(C)ncc1C(=O)Nc1nc2c(s1)CN(C(=O)c1cccc(C(F)F)n1)C2 | 0.001 to 0.1 | ≥ 10 | –
30 | COc1cnc(Cl)cc1-c1cc(C)ncc1C(=O)Nc1nc2c(s1)CN(C(=O)c1ncc(C(F)F)c(C)n1)C2 | 0.001 to 0.1 | ≥ 10 | –
31 | COc1cnc(Cl)cc1-c1cc(C)ncc1C(=O)Nc1nc2c(s1)CN(C(=O)c1ccc(C(F)(F)F)c(C)n1)C2 | 0.001 to 0.1 | ≥ 10 | –
32 | COc1cnc(Cl)cc1-c1cc(C)ncc1C(=O)Nc1nc2c(s1)CN(C(=O)c1cnc(C(F)(F)F)c(C)n1)C2 | 0.001 to 0.1 | 0.5 to 2 | –
33 | COc1cnc(Cl)cc1-c1cc(C)ncc1C(=O)Nc1nc2c(s1)CN(C(=O)c1cc(C)c(C(F)(F)F)c(C)n1)C2 | 0.001 to 0.1 | ≥ 10 | –
34 | COc1cnc(Cl)cc1-c1cc(C)ncc1C(=O)Nc1nc2c(s1)CN(C(=O)c1ncc(C(F)(F)F)c(C)c1C)C2 | 0.001 to 0.1 | ≥ 10 | –
35 | COc1cnc(Cl)cc1-c1cc(C)ncc1C(=O)Nc1nc2c(s1)CN(C(=O)c1cc(C)c(C(F)(F)F)nc1C)C2 | 0.001 to 0.1 | ≥ 10 | –
36 | COc1cnc(Cl)cc1-c1cc(C)ncc1C(=O)Nc1nc2c(s1)CN(C(=O)c1cnc(C(F)(F)F)c(C)c1C)C2 | 0.001 to 0.1 | ≥ 10 | –
37 | 2′-Chloro-5′-methoxy-6-methyl-N-(5-(3-methyl-5-(trifluoromethoxy)picolinoyl)-5,6-dihydro-4H-pyrrolo[3,4-d]thiazol-2-yl)-[4,4′-bipyridine]-3-carboxamide [Example 560] | – | – | IC50 (DLD1 BRCA2 (−/−) cells): 0.001 to 0.1 µM; IC50 (DLD1 WT cells; 7-day CellTiter-Glo): ≥ 10 µM
38 | 2′-Chloro-5′-methoxy-6-methyl-N-(5-(3-methylpyrazine-2-carbonyl)-5,6-dihydro-4H-pyrrolo[3,4-d]thiazol-2-yl)-[4,4′-bipyridine]-3-carboxamide [Example 412] | – | – | IC50 [1]: 1 to 15 nM; IC50 (DLD1 WT cells; 7-day viability): ≥ 10 µM
39 | 2′-Chloro-5′-methoxy-6-methyl-N-(5-(4-methyl-6-(trifluoromethoxy)nicotinoyl)-5,6-dihydro-4H-pyrrolo[3,4-d]thiazol-2-yl)-[4,4′-bipyridine]-3-carboxamide [Example 561] | – | – | IC50 (DLD1 BRCA2 (−/−) cells): 0.001 to 0.1 µM; IC50 (DLD1 WT cells; 7-day CellTiter-Glo): ≥ 10 µM
40 | 2′-Chloro-5′-methoxy-6-methyl-N-(5-(6-methyl-5-(trifluoromethoxy)picolinoyl)-5,6-dihydro-4H-pyrrolo[3,4-d]thiazol-2-yl)-[4,4′-bipyridine]-3-carboxamide [Example 555] | – | – | IC50 (DLD1 BRCA2 (−/−) cells): 0.001 to 0.1 µM; IC50 (DLD1 WT cells; 7-day CellTiter-Glo): ≥ 10 µM
41 | 2′-Chloro-N-(5-(3,5-dimethoxypyrazine-2-carbonyl)-5,6-dihydro-4H-pyrrolo[3,4-d]thiazol-2-yl)-5′-methoxy-6-methyl-[4,4′-bipyridine]-3-carboxamide [Example 413] | – | – | IC50 (DLD1 BRCA2 (−/−) cells): 0.001 to 0.1 µM; IC50 (DLD1 WT cells; 7-day CellTiter-Glo): ≥ 10 µM
42 | 2′-Chloro-N-(5-(5,6-dimethylpyrazine-2-carbonyl)-5,6-dihydro-4H-pyrrolo[3,4-d]thiazol-2-yl)-5′-methoxy-6-methyl-[4,4′-bipyridine]-3-carboxamide [Example 410] | – | – | IC50 (DLD1 BRCA2 (−/−) cells): 0.001 to 0.1 µM; IC50 (DLD1 WT cells; 7-day CellTiter-Glo): ≥ 10 µM
43 | 2′-Chloro-N-(5-(5-(difluoromethyl)-3-methoxypyrazine-2-carbonyl)-5,6-dihydro-4H-pyrrolo[3,4-d]thiazol-2-yl)-5′-methoxy-6-methyl-[4,4′-bipyridine]-3-carboxamide [Example 418] | – | – | IC50 (DLD1 BRCA2 (−/−) cells): 0.001 to 0.1 µM; IC50 (DLD1 WT cells; 7-day CellTiter-Glo): 5 to 10 µM
44 | 2′-Chloro-N-(5-(6-chloro-3-methylpyrazine-2-carbonyl)-5,6-dihydro-4H-pyrrolo[3,4-d]thiazol-2-yl)-5′-methoxy-6-methyl-[4,4′-bipyridine]-3-carboxamide [Example 505] | – | – | IC50 (DLD1 BRCA2 (−/−) cells): 0.001 to 0.1 µM; IC50 (DLD1 WT cells; 7-day CellTiter-Glo): 5 to 10 µM
45 | 2′-chloro-5′-methoxy-6-methyl-N-(5-(thiazole-2-carbonyl)-5,6-dihydro-4H-pyrrolo[3,4-d]thiazol-2-yl)-[4,4′-bipyridine]-3-carboxamide [Example 608] | – | – | IC50 (DLD1 WT cells; 7-day CellTiter-Glo): ≥ 10 µM
46 | 2′-chloro-N-(5-(2-(difluoromethyl)pyrimidine-4-carbonyl)-5,6-dihydro-4H-pyrrolo[3,4-d]thiazol-2-yl)-5′-methoxy-6-methyl-[4,4′-bipyridine]-3-carboxamide [Example 641] | – | – | IC50 (DLD1 BRCA2 (−/−) cells): 0.001 to 0.1 µM; IC50 (DLD1 WT cells; 7-day CellTiter-Glo): ≥ 10 µM
47 | N-(5-(benzo[d]oxazole-2-carbonyl)-5,6-dihydro-4H-pyrrolo[3,4-d]thiazol-2-yl)-2′-chloro-5′-methoxy-6-methyl-[4,4′-bipyridine]-3-carboxamide [Example 615] | – | – | IC50 (DLD1 WT cells; 7-day CellTiter-Glo): ≥ 10 µM

— patent US20250230171A1 (MOMA Therapeutics, Inc., priority 2023, published 2025)
